In patent publication US7417023B2, “Targeted delivery of bioaffecting compounds for the treatment of cancer” (Faulk Pharmaceuticals, Inc., priority 2001, dated 2008):
Read-outs that look alike come from different tables or passages of the source.

Assays:
transferrin receptors = assay: regulation of transferrin receptors on drug-sensitive and drug-resistant cancer cells; assay type: cell-based; conditions: more on drug-resistant than on drug-sensitive cells
[1] = system: drug-sensitive cancer cells; assay: viability of drug-sensitive cancer cells; assay type: cell-based; conditions: after 48 hours in a given concentration
From the text: (§1) In order to test the relationship between calcium and transferrin receptors, the effect of calcium channel inhibitors on the regulation of transferrin receptors was studied in drug-sensitive and drug-resistant cancer cells. […]. […] The addition of both iron and calcium channel blockers had no effect on cell viability.
(§2) In light of the above findings, another series of experiments were done to determine whether the restriction of iron by deferoxamine had differential effects on drug-sensitive and drug-resistant cancer cells.

[2] = system: drug-resistant cancer cells; assay: viability of drug-resistant cancer cells; assay type: cell-based; conditions: after 48 hours in a given concentration
From the text: as §1, §2

[3] = system: doxorubicin-resistant cancer cells; conditions: cited from earlier work
advanced ovarian cancer = assay: unpublished clinical study of 23 patients with advanced ovarian cancer; assay type: in vivo, human; conditions: equivalent to 1 mg doxorubicin per day, days 15 through 19 of monthly cycles; time between diagnosis and randomization 18 months; vs placebo
Description: There is an unpublished clinical study of 23 patients with advanced ovarian cancer who were randomized into test (12 patients) and placebo (11 patients) groups. The test group received transferrin-doxorubicin conjugates equivalent to 1 mg doxorubicin per day on days 15 through 19 of monthly treatment cycles.

[4] = system: metastatic disease from a sarcoma
human mesothelioma cells = conditions: nude mice, compared to animals treated only with doxorubicin; cited from earlier work
[5] = system: leukemic cells in peripheral blood; conditions: cited from earlier work

Compound: [Cl][Cd][Cl] [CdCl2, reference compound]
- regulation of transferrin receptors by calcium channel blockers or iron (transferrin receptors): down-regulation of receptors

Compound: CC(=O)N(O)CCCCCNC(=O)CCC(=O)N(O)CCCCCNC(=O)CCC(=O)N(O)CCCCCN [deferoxamine]
- viability [1]: 93%
- viability (cells alive) [2]: 16%

Compound: COc1cccc2c1C(=O)c1c(O)c3c(c(O)c1C2=O)C[C@@](O)(C(=O)CO)C[C@@H]3O[C@H]1C[C@H](N)[C@H](O)[C@H](C)O1 [doxorubicin, reference compound]
- killing of drug-resistant cancer cells [3]: not killed by 10-fold higher concentrations

Compound: transferrin-bound iron: iron bound to transferrin
- regulation of transferrin receptors by calcium channel blockers or iron (transferrin receptors): down-regulated receptors much more on drug-resistant cells

Compound: transferrin-doxorubicin conjugates
- Cox regression estimates of survival rates (advanced ovarian cancer): significant difference
- radiological evidence of tumor ([4]; by January): no radiological evidence of tumor
- metastatic lesions of the lungs ([4]; treatment begun August 2000, by November): substantially cleared of metastatic lesions
- survival (human mesothelioma cells): significantly prolonging life
- killing of drug-resistant cancer cells [3]: effectively kill multi-drug resistant cells
- killing of drug-resistant cancer cells ([3]; listed as doxorubicin conjugates of transferrin): kill doxorubicin-resistant cancer cells
- toxic effects ([5]; 7 acute leukemia patients, 1 mg/day intravenously for 5 days): no toxic effects
- decrease of the number of leukemic cells in peripheral blood ([5]; 7 patients, within 10-days following therapy): 86%
- extension of disease by bone marrow biopsies ([5]; before and after treatment): no extension of disease
